Measurements as given in US20100137449A1, “SUBSTITUTED 1,3-CYCLOPENTADIONE MULTI-TARGET PROTEIN KINASE MODULATORS OF CANCER, ANGIOGENESIS AND THE INFLAMMATORY PATHWAYS ASSOCIATED THEREWITH” (METAPROTEOMICS, LLC, priority 2007, published 2010).

Tests used:
Experiment in all cases: KinaseProfiler Assay
DCAMKL2(h) = target: T1, DCAMKL2(h) (Homo sapiens, UniProt Q8N568)
T1 sequence (Q8N568 1-766): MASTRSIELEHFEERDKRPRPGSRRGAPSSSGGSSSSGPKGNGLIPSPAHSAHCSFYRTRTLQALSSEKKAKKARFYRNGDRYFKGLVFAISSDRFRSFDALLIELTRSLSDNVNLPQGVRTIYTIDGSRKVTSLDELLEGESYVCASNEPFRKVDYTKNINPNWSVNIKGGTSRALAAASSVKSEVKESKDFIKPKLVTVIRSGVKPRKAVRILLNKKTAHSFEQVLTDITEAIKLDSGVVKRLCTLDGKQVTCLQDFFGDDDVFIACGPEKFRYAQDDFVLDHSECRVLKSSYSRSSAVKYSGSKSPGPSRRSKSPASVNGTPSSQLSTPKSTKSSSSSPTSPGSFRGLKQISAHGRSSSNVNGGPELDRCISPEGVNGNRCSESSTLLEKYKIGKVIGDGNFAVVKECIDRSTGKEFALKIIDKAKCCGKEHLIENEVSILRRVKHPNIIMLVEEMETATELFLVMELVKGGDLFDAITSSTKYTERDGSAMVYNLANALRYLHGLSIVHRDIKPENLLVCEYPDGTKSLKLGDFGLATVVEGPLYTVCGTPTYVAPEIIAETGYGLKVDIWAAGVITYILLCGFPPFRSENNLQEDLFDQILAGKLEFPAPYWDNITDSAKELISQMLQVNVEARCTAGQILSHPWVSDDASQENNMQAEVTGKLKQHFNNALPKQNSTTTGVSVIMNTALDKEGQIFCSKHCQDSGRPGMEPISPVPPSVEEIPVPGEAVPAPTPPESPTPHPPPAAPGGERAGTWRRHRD

MKK7β(h) = target: T2, MKK7β(h) (Homo sapiens, UniProt O14733)
T2 sequence (O14733 1-419): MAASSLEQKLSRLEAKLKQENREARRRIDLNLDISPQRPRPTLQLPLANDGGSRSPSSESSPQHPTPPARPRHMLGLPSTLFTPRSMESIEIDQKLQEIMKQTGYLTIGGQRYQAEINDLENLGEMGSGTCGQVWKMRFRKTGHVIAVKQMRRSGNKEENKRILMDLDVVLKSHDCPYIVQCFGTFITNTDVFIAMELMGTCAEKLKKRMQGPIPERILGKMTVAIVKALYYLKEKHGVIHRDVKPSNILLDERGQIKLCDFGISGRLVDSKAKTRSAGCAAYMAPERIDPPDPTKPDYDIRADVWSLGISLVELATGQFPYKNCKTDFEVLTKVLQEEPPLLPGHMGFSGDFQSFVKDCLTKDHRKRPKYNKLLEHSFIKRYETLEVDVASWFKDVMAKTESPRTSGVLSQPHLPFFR

Flt3(h) = target: T3, Flt3(h) (Homo sapiens, UniProt P36888)
T3 sequence (P36888 27-993): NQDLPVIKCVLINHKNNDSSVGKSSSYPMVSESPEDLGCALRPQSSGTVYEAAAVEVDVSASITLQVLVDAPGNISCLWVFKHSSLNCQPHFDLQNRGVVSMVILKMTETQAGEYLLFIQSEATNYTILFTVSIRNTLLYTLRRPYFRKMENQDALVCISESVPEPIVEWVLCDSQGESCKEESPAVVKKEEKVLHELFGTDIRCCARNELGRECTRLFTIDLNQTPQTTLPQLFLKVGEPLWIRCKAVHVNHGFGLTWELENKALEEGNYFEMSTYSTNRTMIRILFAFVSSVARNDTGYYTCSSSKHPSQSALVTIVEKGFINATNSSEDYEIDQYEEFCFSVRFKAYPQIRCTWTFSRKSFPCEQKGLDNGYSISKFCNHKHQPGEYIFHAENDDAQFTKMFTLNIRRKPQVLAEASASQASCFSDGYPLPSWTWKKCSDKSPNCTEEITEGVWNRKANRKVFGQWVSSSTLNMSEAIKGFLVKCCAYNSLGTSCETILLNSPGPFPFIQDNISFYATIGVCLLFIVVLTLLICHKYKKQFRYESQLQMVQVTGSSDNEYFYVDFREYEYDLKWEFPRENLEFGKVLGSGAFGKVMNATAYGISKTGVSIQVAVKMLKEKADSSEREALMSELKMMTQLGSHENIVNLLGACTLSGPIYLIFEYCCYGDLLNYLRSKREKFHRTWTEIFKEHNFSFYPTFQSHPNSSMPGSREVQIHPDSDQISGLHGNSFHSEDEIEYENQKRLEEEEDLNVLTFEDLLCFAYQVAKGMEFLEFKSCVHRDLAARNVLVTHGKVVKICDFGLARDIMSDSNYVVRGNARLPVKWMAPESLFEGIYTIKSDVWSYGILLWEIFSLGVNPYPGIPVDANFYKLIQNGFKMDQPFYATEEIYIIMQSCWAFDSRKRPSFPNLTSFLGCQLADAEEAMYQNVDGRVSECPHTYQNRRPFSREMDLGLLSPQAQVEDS

Abl(H396P)(h) = Abl(H396P)(h) (Homo sapiens, UniProt P00519, H396P)
Fes(h) = Fes(h) (Homo sapiens, UniProt P07332)
Sequence of Fes(h) (P07332 whole entry): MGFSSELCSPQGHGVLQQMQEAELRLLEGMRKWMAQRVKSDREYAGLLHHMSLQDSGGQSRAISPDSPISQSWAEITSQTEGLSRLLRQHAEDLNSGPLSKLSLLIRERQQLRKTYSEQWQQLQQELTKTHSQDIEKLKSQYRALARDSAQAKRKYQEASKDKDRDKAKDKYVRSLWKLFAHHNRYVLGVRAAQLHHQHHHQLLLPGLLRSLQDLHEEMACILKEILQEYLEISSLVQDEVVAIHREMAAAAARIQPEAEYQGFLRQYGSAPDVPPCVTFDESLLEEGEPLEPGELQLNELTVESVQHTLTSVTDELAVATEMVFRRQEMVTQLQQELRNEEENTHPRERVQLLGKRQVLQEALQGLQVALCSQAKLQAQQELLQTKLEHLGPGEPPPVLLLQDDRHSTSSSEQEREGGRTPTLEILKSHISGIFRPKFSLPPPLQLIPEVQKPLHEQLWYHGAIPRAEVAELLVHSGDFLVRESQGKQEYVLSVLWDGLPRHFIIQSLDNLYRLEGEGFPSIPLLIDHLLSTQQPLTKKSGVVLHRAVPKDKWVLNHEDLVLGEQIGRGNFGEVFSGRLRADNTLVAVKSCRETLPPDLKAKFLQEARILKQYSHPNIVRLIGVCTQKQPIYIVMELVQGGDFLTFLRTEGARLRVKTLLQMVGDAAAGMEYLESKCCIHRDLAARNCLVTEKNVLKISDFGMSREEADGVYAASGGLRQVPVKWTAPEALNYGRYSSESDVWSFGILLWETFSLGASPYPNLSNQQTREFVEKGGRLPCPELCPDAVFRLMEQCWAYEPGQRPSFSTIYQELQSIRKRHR

Tie2(h) = Tie2(h) (Homo sapiens, UniProt Q02763)
Sequence of Tie2(h) (Q02763 23-1124): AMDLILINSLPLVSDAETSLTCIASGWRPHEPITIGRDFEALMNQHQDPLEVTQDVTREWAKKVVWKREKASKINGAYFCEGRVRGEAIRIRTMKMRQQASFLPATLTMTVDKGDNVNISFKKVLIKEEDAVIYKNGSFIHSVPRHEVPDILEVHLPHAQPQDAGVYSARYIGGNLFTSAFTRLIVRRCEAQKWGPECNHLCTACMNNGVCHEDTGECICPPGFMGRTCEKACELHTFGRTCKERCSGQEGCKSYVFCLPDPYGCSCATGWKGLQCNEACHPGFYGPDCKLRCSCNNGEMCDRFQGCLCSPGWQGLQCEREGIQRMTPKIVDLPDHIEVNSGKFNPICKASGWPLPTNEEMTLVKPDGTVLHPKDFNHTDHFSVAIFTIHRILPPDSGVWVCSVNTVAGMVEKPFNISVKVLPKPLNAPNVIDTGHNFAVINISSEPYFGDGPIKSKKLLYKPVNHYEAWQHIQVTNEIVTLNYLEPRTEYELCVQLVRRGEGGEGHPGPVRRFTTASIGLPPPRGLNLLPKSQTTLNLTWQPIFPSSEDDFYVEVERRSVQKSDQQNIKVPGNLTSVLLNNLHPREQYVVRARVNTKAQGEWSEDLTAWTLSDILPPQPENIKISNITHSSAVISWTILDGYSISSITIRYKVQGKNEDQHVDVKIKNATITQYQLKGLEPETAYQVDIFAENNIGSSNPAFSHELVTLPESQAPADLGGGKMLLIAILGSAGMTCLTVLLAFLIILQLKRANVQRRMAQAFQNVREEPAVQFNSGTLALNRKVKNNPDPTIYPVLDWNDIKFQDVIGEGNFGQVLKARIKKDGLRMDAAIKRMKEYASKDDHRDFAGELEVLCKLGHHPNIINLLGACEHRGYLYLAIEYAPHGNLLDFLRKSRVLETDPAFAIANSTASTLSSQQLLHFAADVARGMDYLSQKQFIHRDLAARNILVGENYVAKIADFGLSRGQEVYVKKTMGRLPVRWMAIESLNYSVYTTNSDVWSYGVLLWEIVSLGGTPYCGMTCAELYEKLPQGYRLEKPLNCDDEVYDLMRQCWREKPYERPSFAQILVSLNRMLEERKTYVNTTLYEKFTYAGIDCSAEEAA

CK1γ1(h) = CK1γ1(h) (Homo sapiens, UniProt Q9HCP0)
Sequence of CK1γ1(h) (Q9HCP0 whole entry): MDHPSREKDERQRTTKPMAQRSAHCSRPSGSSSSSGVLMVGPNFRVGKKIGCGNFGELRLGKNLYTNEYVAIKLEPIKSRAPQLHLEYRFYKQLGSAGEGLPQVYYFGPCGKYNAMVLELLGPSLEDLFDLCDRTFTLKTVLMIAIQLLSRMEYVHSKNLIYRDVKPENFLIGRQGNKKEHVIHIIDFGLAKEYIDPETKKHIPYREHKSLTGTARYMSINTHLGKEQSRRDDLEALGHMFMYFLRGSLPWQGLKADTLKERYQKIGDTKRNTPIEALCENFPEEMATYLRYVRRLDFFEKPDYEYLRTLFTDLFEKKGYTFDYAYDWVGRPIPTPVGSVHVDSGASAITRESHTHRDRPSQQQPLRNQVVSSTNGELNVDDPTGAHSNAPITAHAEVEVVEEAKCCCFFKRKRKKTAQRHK

With `CC(C)CCC(=O)[C@]1(O)C(O)=C(C(=O)C(C)C)C(=O)[C@H]1CCC(C)C` [TH2, tetrahydroiso-cohumulone] the kinase inhibition (DCAMKL2(h); 1 μg/ml) was 96% of control, the kinase inhibition (DCAMKL2(h); 5 μg/ml) was 100% of control and the kinase inhibition (DCAMKL2(h); 25 μg/ml) was 110% of control. For the same compound, the kinase inhibition (DCAMKL2(h); 50 μg/ml) was 96% of control, the kinase inhibition (DCAMKL2(h); 100 μg/ml) was 86% of control and the kinase inhibition (MKK7β(h); 1 μg/ml) was 100% of control. For the same compound, the kinase inhibition (MKK7β(h); 5 μg/ml) was 110% of control, the kinase inhibition (MKK7β(h); 25 μg/ml) was 111% of control and the kinase inhibition (MKK7β(h); 50 μg/ml) was 82% of control. For the same compound, the kinase inhibition (MKK7β(h); 100 μg/ml) was 72% of control, the kinase inhibition (Flt3(h); 1 μg/ml) was 107% of control and the kinase inhibition (Flt3(h); 5 μg/ml) was 99% of control. The kinase inhibition (Flt3(h); 25 μg/ml) was 109% of control, the kinase inhibition (Flt3(h); 50 μg/ml) was 95% of control and the kinase inhibition (Flt3(h); 100 μg/ml) was 84% of control. For the same compound, the kinase inhibition (Abl(H396P)(h); 1 μg/ml) was 96% of control, the kinase inhibition (Abl(H396P)(h); 5 μg/ml) was 103% of control and the kinase inhibition (Abl(H396P)(h); 25 μg/ml) was 83% of control. The kinase inhibition (Abl(H396P)(h); 50 μg/ml) was 65% of control, the kinase inhibition (Abl(H396P)(h); 100 μg/ml) was 54% of control and the kinase inhibition (Fes(h); 1 μg/ml) was 140% of control. The kinase inhibition (Fes(h); 5 μg/ml) was 120% of control, the kinase inhibition (Fes(h); 25 μg/ml) was 105% of control and the kinase inhibition (Fes(h); 50 μg/ml) was 99% of control. The kinase inhibition (Fes(h); 100 μg/ml) was 86% of control, the kinase inhibition (Tie2(h); 1 μg/ml) was 110% of control and the kinase inhibition (Tie2(h); 5 μg/ml) was 96% of control. The kinase inhibition (Tie2(h); 25 μg/ml) was 74% of control, the kinase inhibition (Tie2(h); 50 μg/ml) was 80% of control and the kinase inhibition (Tie2(h); 100 μg/ml) was 78% of control. For the same compound, the kinase inhibition (CK1γ1(h); 1 μg/ml) was 100% of control, the kinase inhibition (CK1γ1(h); 5 μg/ml) was 101% of control and the kinase inhibition (CK1γ1(h); 25 μg/ml) was 88% of control. For the same compound, the kinase inhibition (CK1γ1(h); 50 μg/ml) was 73% of control and the kinase inhibition (CK1γ1(h); 100 μg/ml) was 48% of control.
